Positions of bridges follow the written chain, without caps; N, C: chain ends. Residues, ends and D or L forms follow the SMILES beside them.
Experiment: PK/biodistribution following single topical dose: whole blood and plasma radioactivity
Format: in vivo, male albino rats
Set-up: Non-plasma compartment: unit not given beside the values
Details: rat; for Concentration of radioactivity in recovered white blood cells: reverse wash of filters
Protocol: Whole blood and plasma radioactivity analysis, quantitative whole-body autoradiography (QWBA), and micro-autoradiography (mARG) studies are performed following a single topical dose administration to male rats. Formulation 1, Formulation 2, or Formulation 3, where Compound 1 is 3H-Compound 1, are applied in a single topical dose at a target dose of 5 mg/kg to six male albino rats.
An additional three male albino rats received a single topical appropriate amount of CETAPHIL (R) applied to the dose site approximately 1 hour prior to application of ^3H-Compound 1 in a single topical dose at a target dose of 5 mg/kg. An individual rat receiving the emollient pre-treatment was used for a single time-point of 2 hours, 8 hours, and 48 hours.

[1] = CETAPHIL 1 hr prior to single topical 5 mg/kg, 48 h, dosing device removed by rat, potential oral administration by grooming
[2] = CETAPHIL 1 hr prior to single topical 5 mg/kg, 48 h, dosing device removed, potential oral administration
[3] = CETAPHIL emollient 1 hr prior to single topical 5 mg/kg, 2 h
[4] = CETAPHIL emollient 1 hr prior to single topical 5 mg/kg, 8 h
[5] = single topical 5 mg/kg, without CETAPHIL, 1 h
[6] = single topical 5 mg/kg, without CETAPHIL, 1 h post-dose
[7] = single topical 5 mg/kg, without CETAPHIL, 2 h
[8] = single topical 5 mg/kg, without CETAPHIL, 2 h post-dose
[9] = single topical 5 mg/kg, without CETAPHIL, 4 h
[10] = single topical 5 mg/kg, without CETAPHIL, 4 h post-dose
[11] = single topical 5 mg/kg, without CETAPHIL, 8 h
[12] = single topical 5 mg/kg, without CETAPHIL, 8 h post-dose
[13] = single topical 5 mg/kg, without CETAPHIL, 24 h
[14] = single topical 5 mg/kg, without CETAPHIL, 24 h post-dose
[15] = single topical 5 mg/kg, without CETAPHIL, 48 h
[16] = single topical 5 mg/kg, without CETAPHIL, 48 h post-dose

With `CSCC[C@@H]1NC(=O)[C@H](CC(C)C)NC(=O)[C@H](CCCCN)NC(=O)[C@H](CCC(N)=O)NC(=O)[C@H](CCCNC(=N)N)NC(=O)[C@H](CCCCN)NC(=O)[C@H](CCCNC(=N)N)NC(=O)[C@H](CCC(N)=O)NC(=O)[C@H](C(C)C)NC(=O)[C@@H](NC(=O)[C@@H]2CCCN2C(=O)[C@H](C)NC(=O)[C@H](CC(C)C)NC(=O)[C@H](CC(C)C)NC(=O)[C@H](C)NC(=O)[C@H](CC(C)C)NC(=O)[C@H](CC(C)C)NC(=O)[C@@H](NC(=O)[C@H](C)NC(=O)[C@@H]2CCCN2C(=O)[C@H](CC(C)C)NC(=O)[C@H](CC(C)C)NC(=O)[C@H](C)NC(=O)[C@@H](NC(=O)[C@H](C)NC(=O)[C@H](C)N)C(C)C)C(C)C)CSSC[C@@H](C(=O)O)NC(=O)[C@@H]2CCCN2C1=O` [^3H-Compound 1] (H-AAVALLPAVLLALLAPCVQRKRQKLMPC-OH; disulfide 17-28) as the molecule, how does the “Cmax, total radioactivity” value (Plasma, single topical 5 mg/kg) read?
Its value is 14.53 ng/mL.

What about the “Cmax, total radioactivity” value (Whole blood -WBC, single topical 5 mg/kg) of the same molecule?
Its value is 11.68 ng/mL.

And the “Cmax, total radioactivity” value (Whole blood, single topical 5 mg/kg)?
Its value is 2.282 ng/mL.

What about the Blood [1] of the same molecule?
The Blood was 1630 ng/mL.

And the Plasma [1]?
The Plasma was 2312 ng/mL.

And the Non-plasma compartment [2]?
Its Non-plasma compartment is 19.2.

What about the Partition coefficient [2] of the same molecule?
The Partition coefficient was 80.8.

What about the WBC depleted blood [2] of the same molecule?
Its WBC depleted blood is 303.9 ng equivalents/mL.

What about the Blood [3] of the same molecule?
The Blood was 4.444 ng/mL.

And the Non-plasma compartment [3]?
The Non-plasma compartment was 26.5.

What about the Partition coefficient [3] of the same molecule?
The Partition coefficient was 73.5.

What about the Plasma [3] of the same molecule?
The Plasma was 5.443 ng/mL.

And the WBC depleted blood [3]?
Its WBC depleted blood is 2.333 ng equivalents/mL.

What about the Blood [4] of the same molecule?
The Blood was 16.05 ng/mL.

And the Non-plasma compartment [4]?
The Non-plasma compartment was 21.3.

And the Partition coefficient [4]?
The Partition coefficient was 78.7.

What about the Plasma [4] of the same molecule?
Its Plasma is 21.04 ng/mL.

What about the WBC depleted blood [4] of the same molecule?
Its WBC depleted blood is 3.223 ng equivalents/mL.

And the “persistence in the blood” value (after a single topical administration)?
Its value is greater than 48 h.

What about the “time to penetrate the skin deep enough to reach blood vessels” value (cream formulation, single topical administration) of the same molecule?
The value was “less than one hour”.

What about the “Concentration of radioactivity in recovered white blood cells” value (single topical 5 mg/kg, 1 h post-dose, may not represent total white blood cells) of the same molecule?
The value was “BLQ”.

And the “Concentration of radioactivity in recovered white blood cells” value (single topical 5 mg/kg, 2 h post-dose)?
Its value is “BLQ”.

What about the “Concentration of radioactivity in recovered white blood cells” value (single topical 5 mg/kg, 4 h post-dose) of the same molecule?
Its value is “BLQ”.

And the “Concentration of radioactivity in recovered white blood cells” value (single topical 5 mg/kg, 8 h post-dose)?
Its value is “BLQ”.

And the “Concentration of radioactivity in recovered white blood cells” value (single topical 5 mg/kg, 24 h post-dose)?
The value was “BLQ”.

And the “Concentration of radioactivity in recovered white blood cells” value (single topical 5 mg/kg, 48 h post-dose)?
Its value is “BLQ”.

What about the Non-plasma compartment [5] of the same molecule?
The Non-plasma compartment was 43.1.

And the Partition coefficient [5]?
The Partition coefficient was 56.9.

And the “Concentration of radioactivity in WBC depleted blood” value [6]?
Its value is “BLQ”.

And the “Concentration of radioactivity in plasma” value [6]?
The value was 1.764 ng equivalents/mL.

And the “Concentration of radioactivity in whole blood” value (“Concentration … in whole blood” below) [6]?
Its value is 1.923 ng equivalents/mL.

What about the Non-plasma compartment [7] of the same molecule?
Its Non-plasma compartment is 24.9.

And the Partition coefficient [7]?
Its Partition coefficient is 75.1.

What about the “Concentration of radioactivity in WBC depleted blood” value [8] of the same molecule?
Its value is “BLQ”.

What about the “Concentration of radioactivity in plasma” value [8] of the same molecule?
The value was 4.818 ng equivalents/mL.

And the “Concentration … in whole blood” value [8]?
The value was 3.850 ng equivalents/mL.

What about the Non-plasma compartment [9] of the same molecule?
Its Non-plasma compartment is 34.0.

What about the Partition coefficient [9] of the same molecule?
The Partition coefficient was 66.0.

What about the “Concentration of radioactivity in WBC depleted blood” value [10] of the same molecule?
Its value is 0.735 ng equivalents/mL.

And the “Concentration of radioactivity in plasma” value [10]?
Its value is 4.896 ng equivalents/mL.

What about the “Concentration … in whole blood” value [10] of the same molecule?
The value was 4.303 ng equivalents/mL.

What about the Non-plasma compartment [11] of the same molecule?
The Non-plasma compartment was 27.8.

And the Partition coefficient [11]?
Its Partition coefficient is 72.2.

And the “Concentration of radioactivity in WBC depleted blood” value [12]?
Its value is 2.282 ng equivalents/mL.

What about the “Concentration of radioactivity in plasma” value [12] of the same molecule?
The value was 14.53 ng equivalents/mL.

What about the “Concentration … in whole blood” value [12] of the same molecule?
Its value is 11.68 ng equivalents/mL.

What about the Non-plasma compartment [13] of the same molecule?
Its Non-plasma compartment is 30.4.

What about the Partition coefficient [13] of the same molecule?
The Partition coefficient was 69.6.

What about the “Concentration of radioactivity in WBC depleted blood” value [14] of the same molecule?
Its value is 1.166 ng equivalents/mL.

And the “Concentration of radioactivity in plasma” value [14]?
Its value is 6.709 ng equivalents/mL.

What about the “Concentration … in whole blood” value [14] of the same molecule?
Its value is 5.593 ng equivalents/mL.

What about the Non-plasma compartment [15] of the same molecule?
The Non-plasma compartment was 21.7.

And the Partition coefficient [15]?
The Partition coefficient was 78.3.

And the “Concentration of radioactivity in WBC depleted blood” value [16]?
Its value is 1.109 ng equivalents/mL.

And the “Concentration of radioactivity in plasma” value [16]?
Its value is 6.287 ng equivalents/mL.

And the “Concentration … in whole blood” value [16]?
Its value is 4.978 ng equivalents/mL.

And the “partitioning among blood components” value (single topical dose, WBCs versus RBCs and RBC/WBC-depleted plasma)?
Its value is “partitions to the WBCs (white blood cells) of blood preferentially”.

Reference: US20250302967A1, “PEPTIDE FORMULATIONS AND USES THEREOF” (Amytrx Therapeutics, Inc., priority 2022, published 2025)
